In brackets after ≈: the same amount, converted by molar mass. Read-outs that look alike come from different tables or passages of the source.
Assays:
human TOP2A(431-1193) [1] = target: T1, human TOP2A(431-1193) (Homo sapiens, UniProt P11388); test: Microscale thermophoresis (MST) binding assay; conditions: 5 nM NT647-labelled TOP2A(431-1193)
T1 construct: 6xHis (N); made in house; host or cells: E. coli BL21 (DE3)
Experimental: It was transformed into BL21 (DE3) E. coli cells and induced by 0.5 mM IPTG for 16 h at 16 °C. Cells were lysed by sonication and protein purification was by chromatography with the Ni-NTA beads (Invitrogen), followed by a size exclusion chromatography (Superdex 200). […] A serial dilution of the inhibitors was prepared with 100% DMSO and subsequently mixed with the labeled fluorescent protein in the assay buffer (20 mM Tris pH 8.0, 100 mM NaCl, 0.1% NP40, 0.2 mM TCEP, and 0.1 mM PMSF) at the final concentrations of 0.015–500 uM. The final concentration of the protein was 5 nM. The labeled protein and small molecules mix were allowed to incubate in the dark at room temperature for 5 min before filling the capillaries. MST assays were performed with 5–20% LED/excitation power and medium MST power using premium capillaries for Monolith NT.115. The data for the estimation of Kd were analyzed using MO Affinity Analysis software from Nanotemper.
(§1) (A) Ethidium bromide displacement assays were performed by mixing 100 µg/mL salmon sperm DNA with −/+2 µg/mL ethidium bromide and the indicated compounds. Reactions were subjected to fluorescence emission of 590 nm and excitation of 535 nm. Obtained signals were detected by using the Multimode Microplate Reader (Infinite F500). […] Reactions were subjected to 5–20% LED/excitation power and medium MST power using premium capillaries. Obtained signals were detected by using the Monolith NT.115 system. The change in thermophoresis is expressed as the change in the normalized fluorescence (ΔFnorm). MST assays were repeated with two control compounds, enzalutamide (Enza) and merbarone.

K562 cells [2] = test: Cytotoxicity by LDH release; conditions: for Cytotoxicity (LDH release), in words: K562, 0-20 uM, 48 h
Experimental: (§4) (A) K562 cells were treated with 0, 0.5, 1, 5, 10, 15, and 20 uM of T60 or 0, 0.5, 1, 5, 10, 15, 20, 50, and 100 uM of T637 and T638 for 24, 48, or 72 h. […] (B) NCI-H446 small cell lung cancer line and Hela cervical cancer line were treated with 0, 0.5, 1, 5, 10, 15, and 20 uM of T60 or 0, 0.5, 1, 5, 10, 15, 20, 50, and 100 uM of T637 and T638 for five days. Cell growth rates were measured by using Incucyte^TM. (C) K562 cells were treated with 0, 5, 10, 15, and 20 uM of T60, T637, or T638 for 48 h. Cytotoxicity was evaluated by measuring the LDH levels from the culture media. (D) K562 cells were treated with the vehicle or 10–20 µM of etoposide, T60, T637, or T638 for 4 h. Immunoblotting measured p-H2AXγ levels in cells with vinculin as a loading control.

human TOP2A(431-1193) [3] = target: T1, human TOP2A(431-1193); test: EMSA, TOP2A(431-1193) with 5ZRF DNA oligo; type: binding; conditions: 2 uM protein, 300 nM oligo
human TOP2A(431-1193) [4] = target: T1, human TOP2A(431-1193); test: Fluorescence polarization (FP) assay of TOP2A-DNA interaction; type: binding; conditions: 500 nM protein, 0.01-200 µM compound
Experimental: Fluorescent polarization assay was performed in Corning® Low Volume 384-well Black Flat Bottom microplate. […] Triplicate reactions were transferred onto the microplate and incubated at room temperature for 20 min. Fluorescence polarization (FP) measurements were taken by Tecan Infinite F500 with the excitation wavelength of 485 nm and emission wavelength of 535 nm.
(§2) (A) EMSA was performed by purified full-length TOP2A or TOP2B proteins at a contraction of 300 nM with IRDay700 labeled 5ZRF DNA oligo at a concentration of 100 nM in the presence of −/+200 µM of ICRF193, T60, T637, and T638. […] Reactions were subjected to fluorescence […], which were detected by using the Multimode Microplate Reader (Infinite F500). (D) DNA cleavage assays were performed using full-length human TOP2A and TOP2B incubated with the supercoiled pHOT plasmid in the presence of 200 µM of etoposide plus 1, 100, or 200 µM of ICRF193, T60, T637, and T638. Reactions were separated on a DNA gel with ethidium bromide. All experiments were repeated three times, and one representative image was shown. Note: N, nicked DNA; L, linear DNA; and SC, supercoiled DNA.

full-length TOP2A [5] = target: T2, full-length TOP2A (Homo sapiens, UniProt P11388); test: EMSA, full-length TOP2A with 5ZRF DNA oligo; type: binding; set-up: EMSA was performed by purified full-length TOP2A or TOP2B proteins; conditions: 200 µM compound, 300 nM protein, 100 nM oligo
Experimental: as §2

full-length TOP2A [6] = target: T2, full-length TOP2A; test: DNA cleavage assay, TOP2A; type: biochemical; set-up: DNA cleavage assays were performed using full-length human TOP2A and TOP2B; conditions: 200 µM etoposide plus 1, 100 or 200 µM compound, pHOT plasmid
Experimental: as §2

full-length TOP2B [7] = target: T3, full-length TOP2B (Homo sapiens, UniProt Q02880); test: DNA cleavage assay, TOP2B; type: biochemical; set-up: DNA cleavage assays were performed using full-length human TOP2A and TOP2B; conditions: 200 µM etoposide plus 1, 100 or 200 µM compound, pHOT plasmid
Experimental: as §2

salmon sperm DNA = test: Ethidium bromide displacement assay; type: binding; conditions: 100 µg/mL salmon sperm DNA, 2 µg/mL ethidium bromide
Experimental: as §1

Solubility by LC/MS/MS = type: physicochemical; conditions: for solubility at 1 h: kinetic from dmso stock
Experimental: Stock solutions of the tested compounds at 50 mM in dimethyl sulfoxide (DMSO) were diluted 50-fold in methanol (MeOH), Roswell Park Memorial Institute-1640 (RPMI1640), plus 5% charcoal-stripped serum (CSS) from Sigma-Aldrich (media) and phosphate-buffered saline (PBS), and vortexed at room temperature for 1 h at 800 rpm. The resulting solutions were centrifuged at 20,000× g for 5 min, and the saturated supernatants were diluted 40-fold in acetonitrile. The resultant solutions were subjected to LC/MS/MS to determine the solubility.

TOP2A [8] = target: T4, TOP2A (Homo sapiens, UniProt P11388); test: K-DNA decatenation assay, TOP2A; type: biochemical; conditions: 0.01-200 uM, three biological repeats
Experimental: (§3) Figure 2 T637 and T638 are TOP2A inhibitors. (A) K-DNA decatenation assays and (B) supercoiled plasmid DNA relaxation assays are used to measure TOP2A enzyme activity in the presence of 0.01–200 uM T637 or T638. Three biological repeats were performed with each concentration of the compounds, and the densitometry of the D-DNA bands from (A) and the SC bands from (B) was used to establish an inhibition curve for IC50 calculation.

TOP2A [9] = target: T4, TOP2A; test: Supercoiled plasmid DNA relaxation assay, TOP2A; type: biochemical; conditions: 0.01-200 uM, three biological repeats
Experimental: as §3

TOP2B [10] = target: T5, TOP2B (Homo sapiens, UniProt Q02880); test: K-DNA decatenation assay, TOP2B; type: biochemical; conditions: 0.01-200 uM, three biological repeats
Experimental: as §3, with “Figure 3” for “Figure 2”, “are TOP2B” for “are TOP2A”, “measure TOP2B” for “measure TOP2A enzyme”

TOP2B [11] = target: T5, TOP2B; test: Supercoiled plasmid DNA relaxation assay, TOP2B; type: biochemical; conditions: 0.01-200 uM, three biological repeats
Experimental: as §3, with “Figure 3” for “Figure 2”, “are TOP2B” for “are TOP2A”, “measure TOP2B” for “measure TOP2A enzyme”

[12] = Crystal formation (precipitation) in cell cultures; type: physicochemical
Experimental: Both T637 and T638 have improved solubility in aqueous solution and culture media compared to T60 (Figure 1). […] When cells are growing in the culture media and treated with T60 at concentrations ≥50 uM for two days, T60 will form crystals, likely due to the altered pH values by the cells that induce T60 precipitation. […] These improvements in solubility allow higher doses of compounds to be used to treat cancer cells to reach maximum tumor suppression.

in vitro = conditions: mouse, liver microsomes, pH 7.4
Experimental: The reaction was initiated by adding NADPH, followed by incubation at 37 °C. […] The samples were then vortexed and centrifuged at 16,000 rpm for 10 min at 4 °C. The supernatants were collected and analyzed by LC/MS/MS to determine the remaining percentage and the half-life (t1/2) by integrating compound peaks and fitting the resulting AUC values and time points to a one-phase decay equation.

K562 leukemia cells = test: K562 cell proliferation (MTS assay); conditions: for inhibition at 20 µM: Homo sapiens, read-out: Maximum cell proliferation inhibition; for Maximum cell proliferation inhibition: K562, up to 100 uM
Experimental: as §4

full-length TOP2B [13] = target: T3, full-length TOP2B; test: EMSA, full-length TOP2B with 5ZRF DNA oligo; type: binding; set-up: EMSA was performed by purified full-length TOP2A or TOP2B proteins; conditions: 200 µM compound, 300 nM protein, 100 nM oligo
Experimental: as §2

K562 cells [14] = test: Immunoblotting of p-H2AXγ (DNA damage); conditions: K562, 10-20 µM, 4 h
Experimental: as §4

TOP2A(431-1193) = TOP2A(431-1193) (Homo sapiens, UniProt P11388 431-1193); test: fluorescence polarization; merbarone 0.01-200 uM; 3 mM Mg2+; FP: 20 mM HEPES-NaOH pH 7.4, 2 mM DTT, 3 mM MgCl2, 0.05% NP-40, protease inhibitors, room temperature 20 min; EMSA buffer not in material; conditions: protein: recombinant; tags: N-terminal 6xHis (pET28a); label: 3' 6-FAM (Results text says NT474 dye); blunt; self-complementary 20-mer, 2 copies
[15] = RPMI1640 plus 5% charcoal-stripped serum, plasma or biological fluid, cell culture media with serum, read-out: Solubility Media/FBS
[16] = methanol, organic solvent or mixture, methanol, read-out: Solubility Methanol
[17] = phosphate-buffered saline, aqueous buffer, PBS, read-out: Solubility PBS

T1 sequence (P11388 431-1193): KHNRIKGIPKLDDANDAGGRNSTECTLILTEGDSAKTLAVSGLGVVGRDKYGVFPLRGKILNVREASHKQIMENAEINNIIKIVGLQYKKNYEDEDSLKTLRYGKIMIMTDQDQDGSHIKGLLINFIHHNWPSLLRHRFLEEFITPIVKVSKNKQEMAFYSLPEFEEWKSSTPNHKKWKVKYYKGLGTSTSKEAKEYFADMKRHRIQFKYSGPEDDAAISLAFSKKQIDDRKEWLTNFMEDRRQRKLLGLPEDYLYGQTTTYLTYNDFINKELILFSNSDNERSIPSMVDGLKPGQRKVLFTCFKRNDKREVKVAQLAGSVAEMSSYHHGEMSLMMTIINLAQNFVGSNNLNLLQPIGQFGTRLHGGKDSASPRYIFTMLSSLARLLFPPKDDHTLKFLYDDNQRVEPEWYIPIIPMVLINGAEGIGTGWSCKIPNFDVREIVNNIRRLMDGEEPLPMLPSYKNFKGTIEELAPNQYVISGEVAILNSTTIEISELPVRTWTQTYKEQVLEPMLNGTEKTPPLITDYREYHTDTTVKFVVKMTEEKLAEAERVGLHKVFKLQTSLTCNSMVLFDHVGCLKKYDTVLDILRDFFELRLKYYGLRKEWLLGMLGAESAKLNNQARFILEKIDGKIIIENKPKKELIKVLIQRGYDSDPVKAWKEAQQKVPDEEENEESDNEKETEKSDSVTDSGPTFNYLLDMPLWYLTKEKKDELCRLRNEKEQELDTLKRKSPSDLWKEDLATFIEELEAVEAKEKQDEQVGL
T3 sequence (Q02880 whole entry): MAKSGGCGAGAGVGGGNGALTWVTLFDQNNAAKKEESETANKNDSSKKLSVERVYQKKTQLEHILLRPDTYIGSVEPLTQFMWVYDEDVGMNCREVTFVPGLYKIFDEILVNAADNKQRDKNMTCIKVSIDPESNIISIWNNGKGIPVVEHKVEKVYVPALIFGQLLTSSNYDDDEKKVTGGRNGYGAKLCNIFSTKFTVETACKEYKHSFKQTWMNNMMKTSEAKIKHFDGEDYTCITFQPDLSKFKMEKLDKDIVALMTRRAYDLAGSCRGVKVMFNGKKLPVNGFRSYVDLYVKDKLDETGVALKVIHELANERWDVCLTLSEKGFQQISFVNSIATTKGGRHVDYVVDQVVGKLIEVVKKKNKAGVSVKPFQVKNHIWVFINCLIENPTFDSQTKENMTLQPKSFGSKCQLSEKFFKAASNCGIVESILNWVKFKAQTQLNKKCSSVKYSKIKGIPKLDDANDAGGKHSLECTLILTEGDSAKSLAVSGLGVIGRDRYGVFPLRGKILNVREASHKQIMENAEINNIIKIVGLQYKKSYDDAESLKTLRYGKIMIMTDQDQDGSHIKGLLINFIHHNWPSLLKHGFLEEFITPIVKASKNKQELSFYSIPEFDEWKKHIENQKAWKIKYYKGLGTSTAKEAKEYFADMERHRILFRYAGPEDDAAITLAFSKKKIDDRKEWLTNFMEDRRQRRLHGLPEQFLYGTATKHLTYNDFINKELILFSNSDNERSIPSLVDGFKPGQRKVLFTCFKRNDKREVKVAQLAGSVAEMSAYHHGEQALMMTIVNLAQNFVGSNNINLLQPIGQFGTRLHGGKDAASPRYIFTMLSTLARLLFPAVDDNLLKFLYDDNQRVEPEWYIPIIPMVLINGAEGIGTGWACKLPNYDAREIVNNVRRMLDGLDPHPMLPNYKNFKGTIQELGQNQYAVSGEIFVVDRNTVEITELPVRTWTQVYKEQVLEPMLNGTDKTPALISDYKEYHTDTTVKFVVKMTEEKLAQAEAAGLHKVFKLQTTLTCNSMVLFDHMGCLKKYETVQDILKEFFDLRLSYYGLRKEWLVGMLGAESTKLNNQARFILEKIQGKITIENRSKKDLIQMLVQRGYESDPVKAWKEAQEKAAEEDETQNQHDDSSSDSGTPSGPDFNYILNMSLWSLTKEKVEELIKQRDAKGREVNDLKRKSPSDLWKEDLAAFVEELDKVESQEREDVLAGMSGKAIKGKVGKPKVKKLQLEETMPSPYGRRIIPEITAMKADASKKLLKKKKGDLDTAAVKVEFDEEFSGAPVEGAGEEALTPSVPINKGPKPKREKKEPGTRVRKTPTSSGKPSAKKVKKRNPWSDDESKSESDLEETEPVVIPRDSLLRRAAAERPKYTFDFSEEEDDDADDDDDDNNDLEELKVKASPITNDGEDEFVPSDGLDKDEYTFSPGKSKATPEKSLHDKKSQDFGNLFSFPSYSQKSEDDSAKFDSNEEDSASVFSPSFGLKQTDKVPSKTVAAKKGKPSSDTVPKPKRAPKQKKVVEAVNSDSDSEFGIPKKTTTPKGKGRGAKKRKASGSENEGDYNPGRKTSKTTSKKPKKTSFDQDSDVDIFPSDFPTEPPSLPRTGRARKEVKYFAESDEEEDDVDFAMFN
T5 sequence (Q02880 whole entry): as above
T2 sequence (P11388 whole entry): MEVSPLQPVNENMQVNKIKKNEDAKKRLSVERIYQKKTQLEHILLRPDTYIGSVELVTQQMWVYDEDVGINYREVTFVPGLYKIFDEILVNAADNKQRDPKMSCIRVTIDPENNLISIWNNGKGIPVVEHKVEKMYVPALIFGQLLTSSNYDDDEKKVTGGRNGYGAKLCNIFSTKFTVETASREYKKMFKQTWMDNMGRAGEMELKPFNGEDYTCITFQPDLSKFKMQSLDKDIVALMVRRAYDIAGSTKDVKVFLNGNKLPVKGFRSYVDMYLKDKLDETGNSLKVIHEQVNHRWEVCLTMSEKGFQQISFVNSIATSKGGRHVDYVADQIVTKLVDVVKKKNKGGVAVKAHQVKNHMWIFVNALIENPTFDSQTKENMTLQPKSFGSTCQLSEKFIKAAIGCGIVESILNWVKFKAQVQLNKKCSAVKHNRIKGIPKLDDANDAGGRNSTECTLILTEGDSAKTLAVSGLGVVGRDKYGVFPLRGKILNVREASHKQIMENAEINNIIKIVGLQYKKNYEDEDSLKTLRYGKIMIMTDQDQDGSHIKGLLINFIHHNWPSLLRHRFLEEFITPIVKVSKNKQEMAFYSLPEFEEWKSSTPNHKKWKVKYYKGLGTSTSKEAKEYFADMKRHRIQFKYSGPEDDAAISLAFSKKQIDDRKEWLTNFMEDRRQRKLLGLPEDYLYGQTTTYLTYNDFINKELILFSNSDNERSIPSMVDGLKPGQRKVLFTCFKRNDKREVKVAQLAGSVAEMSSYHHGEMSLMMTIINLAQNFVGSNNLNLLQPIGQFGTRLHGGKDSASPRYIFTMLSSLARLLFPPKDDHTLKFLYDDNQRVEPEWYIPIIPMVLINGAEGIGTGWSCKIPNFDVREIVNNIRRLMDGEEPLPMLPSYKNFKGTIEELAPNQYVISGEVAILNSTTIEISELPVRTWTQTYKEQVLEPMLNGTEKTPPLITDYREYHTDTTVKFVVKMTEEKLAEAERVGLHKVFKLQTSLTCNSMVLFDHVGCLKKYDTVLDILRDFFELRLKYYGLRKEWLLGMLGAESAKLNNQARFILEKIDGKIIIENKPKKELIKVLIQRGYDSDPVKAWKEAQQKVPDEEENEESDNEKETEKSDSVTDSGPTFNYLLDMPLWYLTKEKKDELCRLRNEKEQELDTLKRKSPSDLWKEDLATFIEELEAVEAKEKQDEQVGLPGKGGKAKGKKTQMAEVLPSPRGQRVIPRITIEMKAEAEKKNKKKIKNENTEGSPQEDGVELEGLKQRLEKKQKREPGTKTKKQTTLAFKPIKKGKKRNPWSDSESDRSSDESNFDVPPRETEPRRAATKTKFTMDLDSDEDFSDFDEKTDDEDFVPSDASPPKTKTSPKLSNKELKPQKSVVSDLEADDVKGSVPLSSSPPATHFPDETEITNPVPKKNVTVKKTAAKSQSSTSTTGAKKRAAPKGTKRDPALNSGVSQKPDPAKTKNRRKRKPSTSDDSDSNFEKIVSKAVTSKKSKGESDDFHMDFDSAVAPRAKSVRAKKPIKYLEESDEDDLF
T4 sequence (P11388 whole entry): as above
Sequence of TOP2A(431-1193) (P11388 431-1193): as the sequence (P11388 431-1193) above

Molecule: CNC(=O)c1ccc(N2C(=S)N(c3ccc(C#N)c(C(F)(F)F)c3)C(=O)C2(C)C)cc1F [enzalutamide]
- Binding to TOP2A(431-1193) by MST (change of thermophoresis), in words (human TOP2A(431-1193) [1]): no alteration of thermophoresis

Molecule: COc1cc([C@@H]2c3cc4c(cc3[C@@H](O[C@@H]3O[C@@H]5CO[C@@H](C)O[C@H]5[C@H](O)[C@H]3O)[C@H]3COC(=O)[C@H]23)OCO4)cc(OC)c1O [etoposide, reference compound]
- Cytotoxicity (LDH release) (K562 cells [2]; K562, 20 uM, two days): up to 70%

Molecule: O=C1NC(=S)NC(=O)C1C(=O)Nc1ccccc1 [merbarone, reference compound]
- Binding to TOP2A(431-1193) by MST (change of thermophoresis), in words (human TOP2A(431-1193) [1]): no interaction
- Inhibition of TOP2A(431-1193)-DNA interaction (EMSA) (human TOP2A(431-1193) [3]): did not affect the formation of the TOP2–DNA complex
- Effect on TOP2A-DNA interaction (FP) (human TOP2A(431-1193) [4]): did not affect TOP2A–DNA interaction

Molecule: ICRF193 [reference compound]
- Block of TOP2A-DNA oligo complex formation (EMSA) (full-length TOP2A [5]): not
- Prevention of etoposide-induced DNA cleavage, TOP2A (full-length TOP2A [6]): did not prevent etoposide-induced DNA cleavage
- Prevention of etoposide-induced DNA cleavage, TOP2B (full-length TOP2B [7]): did not prevent etoposide-induced DNA cleavage

Molecule: COc1cc(NS(C)(=O)=O)ccc1Nc1c2ccccc2nc2ccccc12 [m-AMSA, amsacrine, reference compound]
- Fluorescence induced by the ethidium bromide/DNA complex reduced by increasing doses (DNA intercalation) (salmon sperm DNA): reduced

Molecule: O=C(Nc1ccc(Nc2ccccc2)cc1)c1ccc[nH]c1=S [T60]
- solubility at 1 h (Solubility by LC/MS/MS; [15]): 206 µM
- Solubility Media/FBS (Solubility by LC/MS/MS; cell culture media with serum): ~ 200 uM
- solubility at 1 h (Solubility by LC/MS/MS; [16]): > 1000 µM
- solubility at 1 h (Solubility by LC/MS/MS; [17]): 5.8 µM (≈ 1.86 µg/mL)
- IC50 (TOP2A [8]): ~0.3 µM
- IC50 (TOP2A [9]): 4.7 µM
- IC50 (TOP2B [10]): ~3.1 µM
- IC50 (TOP2B [11]): ~8.9 µM
- Fluorescence induced by the ethidium bromide/DNA complex reduced by increasing doses (DNA intercalation) (salmon sperm DNA): not
- Inhibition of TOP2A(431-1193)-DNA interaction (EMSA) (human TOP2A(431-1193) [3]): inhibited TOP2A–DNA interaction dose-dependently
- Effect on TOP2A-DNA interaction (FP) (human TOP2A(431-1193) [4]): reduced the TOP2A–DNA interaction in a dose-dependent manner
- Concentration at which the compound forms crystals in culture media with growing cells ([12]; cells treated for two days): ≥ 50 µM
- half-life at 1 uM (in vitro): 51 min
- microsomal CLint at 1 uM (in vitro): 46 µL/min/mg
- Cytotoxicity (LDH release), in words (K562 cells [2]): not observed
- inhibition at 20 µM (K562 leukemia cells; K562, 24 h): ~38%
- inhibition at 20 µM (K562 leukemia cells; K562, 48 h): 71%
- inhibition at 20 µM (K562 leukemia cells; K562, 72 h): 86%
- Block of TOP2A-DNA oligo complex formation (EMSA) (full-length TOP2A [5]): block
- Block of TOP2B-DNA oligo complex formation (EMSA) (full-length TOP2B [13]): block

Molecule: CC(=O)Nc1cc(Nc2ccccc2)ccc1NC(=O)c1ccc[nH]c1=S [T637]
- solubility at 1 h (Solubility by LC/MS/MS; [15]): 707 µM
- solubility at 1 h (Solubility by LC/MS/MS; [16]): > 1000 µM
- solubility at 1 h (Solubility by LC/MS/MS; [17]): 20 µM (≈ 7.57 µg/mL)
- IC50 (TOP2A [8]): ~1.4 µM
- IC50 (TOP2A [9]): 16.8 µM
- IC50 (TOP2B [10]): ~8.9 µM
- IC50 (TOP2B [11]): ~18.6 µM
- Fluorescence induced by the ethidium bromide/DNA complex reduced by increasing doses (DNA intercalation) (salmon sperm DNA): not
- Inhibition of TOP2A(431-1193)-DNA interaction (EMSA) (human TOP2A(431-1193) [3]): inhibited TOP2A–DNA interaction dose-dependently
- Effect on TOP2A-DNA interaction (FP) (human TOP2A(431-1193) [4]): reduced the TOP2A–DNA interaction in a dose-dependent manner
- Crystal formation in cell cultures, in words ([12]; up to 100 uM): no crystal formation
- half-life at 1 uM (in vitro): 20 min
- microsomal CLint at 1 uM (in vitro): 116 µL/min/mg
- Cytotoxicity (LDH release), in words (K562 cells [2]): not observed
- Maximum cell proliferation inhibition (K562 leukemia cells; 48 h): 100%
- Maximum cell proliferation inhibition (K562 leukemia cells; 72 h): 100%
- Intracellular DNA damage (phospho-H2AXγ protein levels) (K562 cells [14]): do not cause intracellular DNA damage
- Block of TOP2A-DNA oligo complex formation (EMSA) (full-length TOP2A [5]): block
- Block of TOP2B-DNA oligo complex formation (EMSA) (full-length TOP2B [13]): block
- Prevention of etoposide-induced DNA cleavage, TOP2A (full-length TOP2A [6]): did prevent etoposide-induced DNA cleavage
- Prevention of etoposide-induced DNA cleavage, TOP2B (full-length TOP2B [7]): did prevent etoposide-induced DNA cleavage

B1: 5ZRF DNA oligo (FAM) (dsDNA)
DNA 1: AGCCGAGCTGCAGCTCGGCT
DNA 2: AGCCGAGCTGCAGCTCGGCT
- binding result (TOP2A(431-1193)): binds

Source: PMC8345109, “Optimization of New Catalytic Topoisomerase II Inhibitors as an Anti-Cancer Therapy” (Cancers, 2021)
